Experimental data: paper PMC5613053 (Investigational New Drugs, 2017)

Assays:
phospho-STAT5 = experiment: Immunoblot for phosphorylated STAT5 / STAT5 in MV4-11 xenograft tumors; format: in vivo, mice; details: for Phospho-STAT5, % of baseline levels: 3 mg/kg
Source text: (§1) Detailed protocols can be found in the online resource.
(§2) After 1 month, mice were divided into groups, with each group having approximately the same mean tumor volume.
MV4-11 xenograft tumor protein samples were electrophoresed on 7.5% gels, transferred to PVDF membranes, and probed for phosphorylated-STAT and total STAT5 as described earlier with one alteration. Following detection of phosphorylated STAT5, the membrane was stripped using Restore™ Western Blot Stripping Buffer (Thermo Fisher Scientific) and then re-probed for total STAT5. Phosphorylation levels were normalized to total STAT5 levels in each group (3 mice/group) relative to the mean value of the control group (4 mice/group). Data are reported as mean ± SEM.

MV4–11 cells = experiment: CellTiter-Glo cell viability; format: cell-based; details: Homo sapiens, MV4-11, 120 h; 5 days of treatment; read-out: Growth inhibition mean IC50
Protocol: A detailed protocol is provided in the online resource.
The assay was performed in either triplicate or quadruplicate. […] The geometric mean was calculated from three individual experiments.

FLT3 = FLT3 (Homo sapiens, UniProt P36888); experiment: biochemical; details: read-out: Inhibition of kinase activity
Chain of FLT3 (P36888 27-993): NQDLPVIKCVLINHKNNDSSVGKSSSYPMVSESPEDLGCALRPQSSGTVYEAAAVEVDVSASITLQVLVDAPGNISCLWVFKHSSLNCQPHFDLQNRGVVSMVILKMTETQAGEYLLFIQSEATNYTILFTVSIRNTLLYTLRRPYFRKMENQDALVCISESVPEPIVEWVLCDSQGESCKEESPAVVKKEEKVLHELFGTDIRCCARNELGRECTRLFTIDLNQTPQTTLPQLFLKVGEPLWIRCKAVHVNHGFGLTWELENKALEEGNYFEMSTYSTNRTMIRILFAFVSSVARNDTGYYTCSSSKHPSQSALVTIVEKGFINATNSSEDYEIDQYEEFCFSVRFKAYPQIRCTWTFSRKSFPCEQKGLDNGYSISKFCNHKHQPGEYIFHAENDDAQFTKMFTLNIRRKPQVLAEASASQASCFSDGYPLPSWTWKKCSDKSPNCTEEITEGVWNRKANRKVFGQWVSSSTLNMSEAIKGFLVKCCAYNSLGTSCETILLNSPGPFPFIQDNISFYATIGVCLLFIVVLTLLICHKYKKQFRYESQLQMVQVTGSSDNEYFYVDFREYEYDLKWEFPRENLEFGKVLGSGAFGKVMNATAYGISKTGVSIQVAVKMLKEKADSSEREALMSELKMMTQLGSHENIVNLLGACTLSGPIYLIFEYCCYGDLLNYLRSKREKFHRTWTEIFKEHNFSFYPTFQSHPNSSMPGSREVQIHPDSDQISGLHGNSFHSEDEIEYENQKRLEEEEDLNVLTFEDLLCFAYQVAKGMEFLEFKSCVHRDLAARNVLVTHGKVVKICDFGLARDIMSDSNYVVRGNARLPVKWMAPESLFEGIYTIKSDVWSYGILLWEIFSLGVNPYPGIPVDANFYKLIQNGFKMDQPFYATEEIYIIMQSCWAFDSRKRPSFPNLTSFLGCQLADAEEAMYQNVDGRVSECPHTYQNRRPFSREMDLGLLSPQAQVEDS
Protocol: These assays were conducted according to the manufacturer’s instructions. […] TK-ELISA and MSA assays were used to conduct IC50 studies for FLT3, LTK, AXL, and c-KIT; the HTRF® KinEASE™-TK assay (Sceti Medical Labo, Tokyo, Japan) was performed according to the manufacturer’s protocol to assess the IC50 value of echinoderm microtubule-associated protein-like 4-ALK (EML4-ALK; three individual experiments for each kinase).

[1] = system: Ba/F3 cells expressing FLT3-ITD-D835Y; experiment: Ba/F3 FLT3-ITD-D835Y subcutaneous xenograft; format: in vivo, mice; details: up to 7 days
Protocol: (§3) Once tumor growth had been confirmed, mice xenografted with MV4–11 cells were monitored for 28 days; mice xenografted with Ba/F3 cells expressing FLT3 mutations were monitored for 7 days. Tumor diameter was measured using a caliper, and tumor volume was determined by calculating the volume of an ellipsoid using the formula: length × width^2 × 0.5. Body weight was measured using a standard balance. Data are expressed as mean ± SEM from n = 6 mice/group (MV4–11) and n = 5 mice/group (Ba/F3).
(§4) After tumor establishment, mice were divided into groups such that the mean tumor volume was approximately equal in each group.

[2] = system: Ba/F3 cells expressing FLT3-D835Y; experiment: Ba/F3 FLT3-D835Y subcutaneous xenograft; format: in vivo, mice; details: up to 7 days
Protocol: as §3, §4

phosphorylated FLT3 = target: T1, phosphorylated FLT3 (Homo sapiens, UniProt P36888, INS600HVDFREYEYD); experiment: ELISA for phosphorylated FLT3 / total FLT3 in MV4-11 xenograft tumors; format: in vivo, mice
T1 construct: MV4–11 cells, which endogenously express FLT3-ITD; from tissue; host or cells: MV4-11 xenograft tumours from nude mice
T1 sequence (P36888 with tags, fused parts or gaps INS600HVDFREYEYD): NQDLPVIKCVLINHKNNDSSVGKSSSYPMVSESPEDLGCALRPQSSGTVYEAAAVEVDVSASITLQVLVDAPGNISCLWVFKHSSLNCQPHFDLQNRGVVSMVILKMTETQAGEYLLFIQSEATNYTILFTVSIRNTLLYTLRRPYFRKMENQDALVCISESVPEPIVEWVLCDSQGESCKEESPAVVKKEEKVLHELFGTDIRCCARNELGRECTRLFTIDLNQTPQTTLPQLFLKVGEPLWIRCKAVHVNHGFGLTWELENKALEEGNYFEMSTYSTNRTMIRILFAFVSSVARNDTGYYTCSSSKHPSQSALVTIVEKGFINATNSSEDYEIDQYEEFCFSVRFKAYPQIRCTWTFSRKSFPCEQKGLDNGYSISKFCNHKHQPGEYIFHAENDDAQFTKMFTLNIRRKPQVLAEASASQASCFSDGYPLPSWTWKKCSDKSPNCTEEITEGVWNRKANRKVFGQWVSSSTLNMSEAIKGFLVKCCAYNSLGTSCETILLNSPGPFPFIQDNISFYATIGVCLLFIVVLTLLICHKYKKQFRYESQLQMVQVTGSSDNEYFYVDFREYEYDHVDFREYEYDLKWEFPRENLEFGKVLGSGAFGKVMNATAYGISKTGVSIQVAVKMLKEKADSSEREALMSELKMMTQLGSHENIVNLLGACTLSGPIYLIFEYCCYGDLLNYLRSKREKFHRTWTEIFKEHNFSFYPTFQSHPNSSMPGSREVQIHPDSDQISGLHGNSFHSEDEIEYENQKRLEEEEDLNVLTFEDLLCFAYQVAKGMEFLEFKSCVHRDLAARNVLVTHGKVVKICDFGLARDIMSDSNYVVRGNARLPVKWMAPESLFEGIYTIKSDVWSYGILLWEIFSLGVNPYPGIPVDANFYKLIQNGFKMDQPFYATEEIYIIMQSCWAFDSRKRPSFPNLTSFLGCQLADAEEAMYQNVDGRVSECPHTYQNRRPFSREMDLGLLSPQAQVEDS
Protocol: as §1, §2
MULTI-ARRAY® 96-well plates (Meso Scale Discovery, Rockville, MD) were coated with capture antibodies for phosphorylated FLT3 or total FLT3 (DuoSet® IC, R&D systems, Minneapolis, MN) and incubated overnight at 4°C with shaking. After washing with TBS-T, coated plates were blocked with 3% MSD® Blocker-A (Meso Scale Discovery) in TBS-T for 1 h at room temperature and then incubated with total protein lysates derived from MV4-11 xenografted tumors (500 μg/well for phosphorylated FLT3 and 20 μg/well for FLT3), overnight at 4°C. Following a wash step, anti-phosphotyrosine antibody (clone 4G10®, Biotin Conjugate [Millipore, Billerica, MA]) for the detection of phosphorylated FLT3 or the DuoSet® IC FLT3 detection antibody for total FLT3 were added to the plate and incubated for 2 h at room temperature. Wells were then washed and incubated with MSD® SULFO-TAG Labeled Streptavidin (Meso Scale Discovery) for 1 h at room temperature, followed by the addition of MSD® Read Buffer (Meso Scale Discovery). Electrochemiluminescent signals were measured using a SECTOR® imager (Meso Scale Discovery). Phosphorylation levels were normalized to total FLT3 levels in each group (3 mice/group except the point at 1 h after the administration of 1 mg/kg [2 mice]) relative to the mean value of the control group (5 mice/group). Data are reported as mean ± SEM.

For `CCc1nc(C(N)=O)c(Nc2ccc(N3CCC(N4CCN(C)CC4)CC3)c(OC)c2)nc1NC1CCOCC1` [gilteritinib], the “Phospho-STAT5, % of baseline levels” value (phospho-STAT5; 4 h and 8 h) was under 20%, the “Phospho-STAT5, % of baseline levels” value (phospho-STAT5; 24 h) was “approximately 50%” and the “Phosphorylation level of STAT5 in tumors” value (phospho-STAT5; 4 h and 8 h after single dose of 6 mg/kg or 10 mg/kg) was “almost completely abolished”. The “STAT5 phosphorylation level, % of baseline” value (phospho-STAT5; 24 h post drug, 6 mg/kg or 10 mg/kg) was about 20%, the IC50 (MV4–11 cells) was 0.92 nM and the inhibition at 0.001 µM (FLT3) was over 50%. The “Antitumor effect (tumor volume)” value ([1]; 10 mg/kg once-daily oral) was “showed antitumor efficacy”, the “Antitumor effect (tumor volume)” value ([1]; 30 mg/kg once-daily oral) was “induced tumor regression” and the “Antitumor effect (tumor volume)” value ([2]; 10 mg/kg once-daily oral) was “showed antitumor efficacy”. For the same molecule, the “Antitumor effect (tumor volume)” value ([2]; 30 mg/kg once-daily oral) was “induced tumor regression”, the “Phospho-FLT3 state in tumor” value (phosphorylated FLT3; single oral 1 mg/kg, by 24 h) was “returned to the pre-treatment level” and the “Decrease in phospho-FLT3 in tumor” value (phosphorylated FLT3; single oral 10 mg/kg, 24 h period) was “maintained throughout the 24 h experimental period”. The “Decrease of phosphorylated FLT3 in tumor compared with control” value (phosphorylated FLT3; within 1 h after single oral 1–10 mg/kg) was “approximately 40%”.
